Key:
[1] = Stability of iodosulfuron-methyl-sodium solid forms; type: physicochemical; details: hydrolysis when dissolved or dispersed in water and during storage exposed to moisture
[2] = compared with the amorphous state; from U.S. Ser. No. 14/926,133; cited from earlier work

COC(=O)c1ccc(I)cc1S(=O)(=O)NC(=O)Nc1nc(C)nc(OC)n1.[Na] [sodium salt of methyl 4-iodo-2-[[[[(4-methoxy-6-methyl-1,3,5-triazin-2-yl)amino]carbonyl]amino]sulfonyl]benzoate]
stability [1]: highly unstable
stability in formulations [2]: improved stability

— US20170118987A1, “SYNERGISTIC HERBICIDAL COMPOSITION AND USE THEREOF” (ROTAM AGROCHEM INTERNATIONAL CO., LTD, priority 2015, published 2017)
